The results in this text go back to patent US9023852B2, “1, 2, 4-thiadiazol-5-ylpiperazine derivatives useful in the treatment of neurodegenerative diseases” (Remynd NV, priority 2011, dated 2015).

This assay has as its system M17—3TAU(P301L) cells. The assay can be described thus: Neuroblastoma tauopathy model: inhibition of TAU-induced cytotoxicity (LDH). The following applies: Homo sapiens, 168 h; inhibition of TAU-induced toxicity (LDH), 7 days differentiation with retinoic acid. The assay is classed as cell-based. The source says: A TAU expression plasmid was constructed by sub-cloning the cDNA encoding for human TAU-P301L protein, wherein proline at position 301 is substituted by a leucine residue, into mammalian expression vector pcDNA3.1 resulting in the plasmid pcDNA3.1-TAUP301L. Plasmids pcDNA3.1 and pcDNA3.1-TAU P301L were transfected into human neuroblastoma cells (BE-M17; ATCC No. CRL-2267™) using lipofectamine reagent and subsequently, independent clonal cell lines with the plasmids stably integrated into the genome were selected by antibiotic resistance selection (Geneticin (G418)), resulting in cell lines M17.pcDNA3 and M17—3TAUP301L. Expression of the TAUP301L gene in the M17—3TAUP301L cells was confirmed by Western blot analysis.
Differentiation of the cells with RA leads to phosphorylation and subsequent aggregation of TAU, inducing a tauopathy in these cells. Cytotoxicity of cells was measured by quantification of lactate dehydrogenase (LDH) levels. In dead cells LDH is leaked out of the cells into the medium due to a loss of plasma-membrane integrity.
Briefly, 3 days preceding the experiment pre-cultures of M17.pcDNA3 and M17—3TAU(P301L) cells were prepared, starting from a stock culture, at a density of 50.000-100.000 cells/cm2 in detection medium (Optimem Reduced Serum without phenol red (Gibco, Cat. 31985-047) supplemented with 1% fetal calf serum (FCS), 1 mM sodium pyruvate, 1× non-essential amino acids (NEAA), 500 μg/ml G418 and 0.5× antibiotic/antimycotic (ABAM)). At the day of the experiment these precultures were diluted to ˜0, 1.106 cells/ml in detection medium without FCS and 60 μL of this suspension is dispensed per well into a 96-well microtiter plate. After 3 hours of incubation at 37° C./5% CO2 an equal volume of detection medium containing 2.5 μM RA was added and subsequently incubated for 7 days at 37° C./5% CO2. After 7 days, LDH activity was determined using the Promega Cytotox 96 Non-Radioactive cytotoxicity assay (Cat. G1780), according the manufacturer's instructions. Cytotoxicity is measured as the ratio of LDH increase in the supernatant divided by the LDH increase in the total cell suspension (sum of the LDH measured in cells and supernatant).
The M17—3TAU(P301L) cell line makes it possible to assess the ability of novel compounds to inhibit TAU-induced cytotoxicity. […] Compounds were tested for their ability to hamper TAU-induced toxicity at different concentrations, ranging from low non-effective concentrations to high potent concentrations. Afterwards, the dose-dependent inhibition curve was used to calculate their EC50 (Table 1).
`COc1ccc(C(C)CN2CCN(c3nc(-c4ccc(Cl)cc4)ns3)CC2)cc1` (centres unmarked) [Example 72, 1-[3-(4-Chloro-phenyl)-[1,2,4]thiadiazol-5-yl]-4-[2-(4-methoxy-phenyl)-propyl]-piperazine] yielded an EC50 of 94.3 nM. In turn, `COc1ccc(CC(C)N2CCN(c3nc(-c4ccc(Cl)cc4)ns3)CC2)cc1` (centres unmarked) [Example 73, 1-[3-(4-Chloro-phenyl)-[1,2,4]thiadiazol-5-yl]-4-[2-(4-methoxy-phenyl)-1-methyl-ethyl]-piperazine] came in with an EC50 of 0.9 nM. On to `COc1cc(CCN2CCN(c3nc(-c4ccc(Cl)cc4)ns3)CC2)ccn1` [Example 75, 1-[3-(4-Chloro-phenyl)-[1,2,4]thiadiazol-5-yl]-4-[2-(2-methoxy-pyridin-4-yl)-ethyl]-piperazine], for which the EC50 is 13.4 nM. With `COc1ccc(CCN2CCN(c3nc(-c4cnccn4)ns3)CC2)cc1` [Example 76, 2-(5-{4-[2-(4-Methoxy-phenyl)-ethyl]-piperazin-1-yl}-[1,2,4]thiadiazol-3-yl)-pyrazine], the midpoint of the response, the EC50, lay at 40.8 nM. For the molecule `COc1cccc(CCN2CCN(c3nc(-c4cnccn4)ns3)CC2)c1` [Example 77, 2-(5-{4-[2-(3-Methoxy-phenyl)-ethyl]-piperazin-1-yl}-[1,2,4]thiadiazol-3-yl)-pyrazine], the EC50 stood at 261 nM. Consider `COc1ccc(CCN2CCN(c3nc(-c4ccc(C#N)cc4)ns3)CC2)cc1` [Example 78, 4-(5-{4-[2-(4-Methoxy-phenyl)-ethyl]-piperazin-1-yl}-[1,2,4]thiadiazol-3-yl)-benzonitrile], for which the response was half-maximal at 2.1 nM (EC50). The molecule `COc1ccc(CCN2CCN(c3nc(-c4ccc(Cl)cc4)ns3)CC2)cn1` [Example 79, 1-[3-(4-Chloro-phenyl)-[1,2,4]thiadiazol-5-yl]-4-[2-(6-methoxy-pyridin-3-yl)-ethyl]-piperazine] gave an EC50 of 2.8 nM. The EC50 values of the last two molecules are within 1.5-fold of each other. `COc1ccc(CCN2CCN(c3nc(-c4ccc(Cl)cc4)ns3)CC2)cc1F` [Example 80, 1-[3-(4-Chloro-phenyl)-[1,2,4]thiadiazol-5-yl]-4-[2-(3-fluoro-4-methoxy-phenyl)-ethyl]-piperazine] had an EC50 of 2.7 nM. In turn, `COc1ccc(CCN2CCN(c3nc(-c4cccc(C#N)c4)ns3)CC2)cc1` [Example 81, 3-(5-{4-[2-(4-Methoxy-phenyl)-ethyl]-piperazin-1-yl}-[1,2,4]thiadiazol-3-yl)-benzonitrile] showed an EC50 of 0.6 nM. `Clc1cccc(-c2nsc(N3CCN(CCc4ccccc4)CC3)n2)c1` [Example 82, 1-[3-(3-Chloro-phenyl)-[1,2,4]thiadiazol-5-yl]-4-phenethyl-piperazine] yielded an EC50 of 4 nM. `Fc1cccc(-c2nsc(N3CCN(CCc4ccccc4)CC3)n2)c1` [Example 83, 1-[3-(3-Fluoro-phenyl)-[1,2,4]thiadiazol-5-yl]-4-phenethyl-piperazine] returned an EC50 of 9.5 nM.

Molecule `COc1ccc(CCN2CCN(c3nc(-c4cccc(F)c4)ns3)CC2)cc1` [Example 84, 1-[3-(3-Fluoro-phenyl)-[1,2,4]thiadiazol-5-yl]-4-[2-(4-methoxy-phenyl)-ethyl]-piperazine] had an EC50 of 0.7 nM. `Fc1ccc(CCN2CCN(c3nc(-c4cccc(Cl)c4)ns3)CC2)cc1` [Example 85, 1-[3-(3-Chloro-phenyl)-[1,2,4]thiadiazol-5-yl]-4-[2-(4-fluoro-phenyl)-ethyl]-piperazine]: the EC50 came to 3.1 nM. Regarding `Fc1ccc(CCN2CCN(c3nc(-c4cccc(F)c4)ns3)CC2)cc1` [Example 86, 1-[2-(4-Fluoro-phenyl)-ethyl]-4-[3-(3-fluoro-phenyl)-[1,2,4]thiadiazol-5-yl]-piperazine], the EC50 amounted to 8.9 nM. `Clc1ccc(CCN2CCN(c3nc(-c4cccc(Cl)c4)ns3)CC2)cc1` [Example 87, 1-[2-(4-Chloro-phenyl)-ethyl]-4-[3-(3-chloro-phenyl)-[1,2,4]thiadiazol-5-yl]-piperazine] registered an EC50 of 13.1 nM.

For `COc1cc(CCN2CCN(c3nc(-c4cccc(Cl)c4)ns3)CC2)ccn1` [Example 89, 1-[3-(3-Chloro-phenyl)-[1,2,4]thiadiazol-5-yl]-4-[2-(2-methoxy-pyridin-4-yl)-ethyl]-piperazine], the EC50 came to 1.6 nM. Regarding `COc1cc(CCN2CCN(c3nc(-c4cccc(F)c4)ns3)CC2)ccn1` [Example 90, 1-[3-(3-Fluoro-phenyl)-[1,2,4]thiadiazol-5-yl]-4-[2-(2-methoxy-pyridin-4-yl)-ethyl]-piperazine], a half-maximal response (EC50) required 6.8 nM. Molecule `COc1ccc(CCN2CCN(c3nc(-c4cncc(Cl)c4)ns3)CC2)cc1` [Example 91, 1-[3-(5-Chloro-pyridin-3-yl)-[1,2,4]thiadiazol-5-yl]-4-[2-(4-methoxy-phenyl)-ethyl]-piperazine] gave an EC50 of 0.9 nM. `Cc1ccccc1CN1CCN(c2nc(-c3cccc(Cl)c3)ns2)CC1` [Example 92, 1-[3-(3-Chloro-phenyl)-[1,2,4]thiadiazol-5-yl]-4-(2-methyl-benzyl)-piperazine] showed an EC50 of 43.3 nM. The figure for `COc1ccc(CCN2CCN(c3nc(-c4cccc(Cl)c4)ns3)CC2)cn1` [Example 93, 1-[3-(3-Chloro-phenyl)-[1,2,4]thiadiazol-5-yl]-4-[2-(6-methoxy-pyridin-3-yl)-ethyl]-piperazine] is 0.9 nM; for `Cc1ccc(-c2nsc(N3CCN(CCc4ccccc4)CC3)n2)cn1` [Example 94, 1-[3-(6-Methyl-pyridin-3-yl)-[1,2,4]thiadiazol-5-yl]-4-phenethyl-piperazine] it is 9.5 nM. For `COc1ccc(CCN2CCN(c3nc(-c4ccc(C)nc4)ns3)CC2)cc1` [Example 95, 1-[2-(4-Methoxy-phenyl)-ethyl]-4-[3-(6-methyl-pyridin-3-yl)-[1,2,4]thiadiazol-5-yl]-piperazine], the EC50 was found to be 3.1 nM. The molecule `Cc1ccc(-c2nsc(N3CCN(CCc4ccc(F)cc4)CC3)n2)cn1` [Example 96, 1-[2-(4-Fluoro-phenyl)-ethyl]-4-[3-(6-methyl-pyridin-3-yl)-[1,2,4]thiadiazol-5-yl]-piperazine] gave a concentration for a half-maximal effect (EC50) of 28.1 nM. The molecule `COc1cc(CCN2CCN(c3nc(-c4ccc(C)nc4)ns3)CC2)ccn1` [Example 97, 1-[2-(2-Methoxy-pyridin-4-yl)-ethyl]-4-[3-(6-methyl-pyridin-3-yl)-[1,2,4]thiadiazol-5-yl]-piperazine] yielded an EC50 of 51.3 nM. Against the preceding molecule, the EC50 is about 1.8-fold higher.

The molecule `Cc1ccc(-c2nsc(N3CCN(CCc4ccc(Cl)cc4)CC3)n2)cn1` [Example 98, 1-[2-(4-Chloro-phenyl)-ethyl]-4-[3-(6-methyl-pyridin-3-yl)-[1,2,4]thiadiazol-5-yl]-piperazine] had an EC50 of 80.6 nM. This EC50 lies about 1.6-fold higher than the previous one. The same measure for `Cc1ccccc1CN1CCN(c2nc(-c3cccc(F)c3)ns2)CC1` [Example 99, 1-[3-(3-Fluoro-phenyl)-[1,2,4]thiadiazol-5-yl]-4-(2-methyl-benzyl)-piperazine]: 271 nM; for `COc1ccc(CCN2CCN(c3nc(-c4cccc(F)c4)ns3)CC2)cn1` [Example 100, 1-[3-(3-Fluoro-phenyl)-[1,2,4]thiadiazol-5-yl]-4-[2-(6-methoxy-pyridin-3-yl)-ethyl]-piperazine]: 4.3 nM; for `Fc1ccc(-c2nsc(N3CCN(CCc4ccccc4)CC3)n2)cc1F` [Example 101, 1-[3-(3,4-Difluoro-phenyl)-[1,2,4]thiadiazol-5-yl]-4-phenethyl-piperazine]: 3.2 nM.

In turn, `COc1ccc(CCN2CCN(c3nc(-c4ccc(F)c(F)c4)ns3)CC2)cc1` [Example 102, 1-[3-(3,4-Difluoro-phenyl)-[1,2,4]thiadiazol-5-yl]-4-[2-(4-methoxy-phenyl)-ethyl]-piperazine] came in with an EC50 of 0.9 nM.

`Fc1ccc(CCN2CCN(c3nc(-c4ccc(F)c(F)c4)ns3)CC2)cc1` [Example 103, 1-[3-(3,4-Difluoro-phenyl)-[1,2,4]thiadiazol-5-yl]-4-[2-(4-fluoro-phenyl)-ethyl]-piperazine]: the EC50 turned out to be 3.4 nM. Take `Fc1ccc(-c2nsc(N3CCN(CCc4ccc(Cl)cc4)CC3)n2)cc1F` [Example 104, 1-[2-(4-Chloro-phenyl)-ethyl]-4-[3-(3,4-difluoro-phenyl)-[1,2,4]thiadiazol-5-yl]-piperazine]: the EC50 was 11.2 nM.

Take `COc1ccc(CCN2CCN(c3nc(-c4ccc(F)c(F)c4)ns3)CC2)cn1` [Example 105, 1-[3-(3,4-Difluoro-phenyl)-[1,2,4]thiadiazol-5-yl]-4-[2-(6-methoxy-pyridin-3-yl)-ethyl]-piperazine]: the response was half-maximal at 2.1 nM (EC50).
